The results in this text go back to ChEMBL document CHEMBL5154846, “Adjusted degradation of BRD4 S and BRD4 L based on fine structural modifications of the pyrrolopyridone scaffold” (Eur J Med Chem, 2022).

For assay [1], the target named is T1, Bromodomain-containing protein 4 (Homo sapiens, UniProt O60885). Briefly: Inhibition of BRD4-BD1 (unknown origin) preincubated for 30 mins followed by substrate addition and measured after 3 hr by HTRF assay.
The target in assay [2] is T1, Bromodomain-containing protein 4. Briefly: Inhibition of BRD4-BD2 (unknown origin) preincubated for 30 mins followed by substrate addition and measured after 3 hr by HTRF. A general note: In TR-FRET formats the signal depends on donor and acceptor labels being close together.
The target of assay [3] is Bromodomain-containing protein 2 (Homo sapiens) (UniProt P25440). Briefly: Protac activity at BRD2 in human MV4-11 cells at 100 nM measured after 4 hrs by immunoblot analysis. Format: cell-based.
Sequence of Bromodomain-containing protein 2 (Homo sapiens) (P25440 whole entry, looked up): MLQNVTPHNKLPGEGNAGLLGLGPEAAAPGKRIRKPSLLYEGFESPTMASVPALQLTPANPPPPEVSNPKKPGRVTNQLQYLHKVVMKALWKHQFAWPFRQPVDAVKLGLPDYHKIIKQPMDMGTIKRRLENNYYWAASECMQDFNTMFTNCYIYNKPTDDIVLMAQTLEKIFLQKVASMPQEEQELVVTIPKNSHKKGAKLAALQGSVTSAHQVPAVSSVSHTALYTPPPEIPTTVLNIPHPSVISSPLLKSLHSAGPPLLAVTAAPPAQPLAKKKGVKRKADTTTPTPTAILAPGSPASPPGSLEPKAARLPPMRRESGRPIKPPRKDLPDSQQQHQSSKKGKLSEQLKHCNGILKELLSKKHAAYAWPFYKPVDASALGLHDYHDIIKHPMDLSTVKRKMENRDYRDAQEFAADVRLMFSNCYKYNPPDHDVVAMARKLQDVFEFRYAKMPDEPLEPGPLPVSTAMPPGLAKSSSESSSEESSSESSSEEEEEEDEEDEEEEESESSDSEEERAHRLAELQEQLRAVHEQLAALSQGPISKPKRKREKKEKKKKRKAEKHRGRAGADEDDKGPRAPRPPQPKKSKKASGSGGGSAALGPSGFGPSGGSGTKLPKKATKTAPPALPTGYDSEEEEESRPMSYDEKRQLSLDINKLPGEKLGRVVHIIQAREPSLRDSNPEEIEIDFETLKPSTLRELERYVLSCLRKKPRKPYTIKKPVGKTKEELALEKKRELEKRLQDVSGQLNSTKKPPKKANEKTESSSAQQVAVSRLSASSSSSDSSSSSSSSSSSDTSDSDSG
Assay [4] has the same target. The assay can be described thus: Protac activity at BRD2 in human MV4-11 cells at 100 nM measured after 24 hrs by immunoblot analysis. The assay is classed as cell-based.
Assay [5] has as its target Bromodomain-containing protein 3 (Homo sapiens) (UniProt Q15059). The assay can be described thus: Protac activity at BRD3 in human MV4-11 cells at 100 nM measured after 4 hrs by immunoblot analysis. Format: cell-based. On the technique in general: Immunoblotting shows a protein as a band on a membrane.
The target is the same in assay [6]. The assay can be described thus: Protac activity at BRD3 in human MV4-11 cells at 100 nM measured after 24 hrs by immunoblot analysis. Format: cell-based.
The target of assay [7] is T1, Bromodomain-containing protein 4. Briefly: Protac activity at BRD4 short isoform in human MV4-11 cells at 100 nM for 24 hrs by immunoblot analysis. The assay is classed as cell-based.
For assay [8], the system named is MV4-11. The assay can be described thus: Antiproliferative activity against human MV4-11 cells incubated for 72 hrs by CCK8 assay. Conditions: MV4-11, 72 h. The assay is classed as functional, cell-based.
Assay [9] has as its system MV4-11. The assay can be described thus: Cell cycle arrest in human MV4-11 cells assessed as accumulation at G2/M phase at 0.1 uM for 24 hrs by PI/RNase staining based flow cytometry analysis. Format: functional. In general terms: In flow cytometry, cells or beads pass a laser one at a time.
Assay [10] relates to MV4-11. The assay can be described thus: Anti-proliferative activity in human MV4-11 cells assessed as downregulation of c-myc levels at 10 to 1000 nM incubated for 4 hrs by western blot analysis. The note with it: dose 10-1000 nM. Format: functional, cell-based.
In assay [11] the test system is MV4-11. Briefly: Anti-proliferative activity in human MV4-11 cells assessed as downregulation of c-myc levels at 100 nM incubated for 24 hrs by western blot analysis. Format: functional, cell-based.
The target in assay [12] is T1, Bromodomain-containing protein 4. Briefly: Protac activity at BRD4 short isoform in human MV4-11 cells at 100 nM for 12 hrs by immunoblot analysis. The assay is classed as cell-based.

The source made the active and inactive calls. The calls are words filed in the database; no cut-off is given here.

Sequence of Bromodomain-containing protein 3 (Homo sapiens) (Q15059 2-726 limits assumed): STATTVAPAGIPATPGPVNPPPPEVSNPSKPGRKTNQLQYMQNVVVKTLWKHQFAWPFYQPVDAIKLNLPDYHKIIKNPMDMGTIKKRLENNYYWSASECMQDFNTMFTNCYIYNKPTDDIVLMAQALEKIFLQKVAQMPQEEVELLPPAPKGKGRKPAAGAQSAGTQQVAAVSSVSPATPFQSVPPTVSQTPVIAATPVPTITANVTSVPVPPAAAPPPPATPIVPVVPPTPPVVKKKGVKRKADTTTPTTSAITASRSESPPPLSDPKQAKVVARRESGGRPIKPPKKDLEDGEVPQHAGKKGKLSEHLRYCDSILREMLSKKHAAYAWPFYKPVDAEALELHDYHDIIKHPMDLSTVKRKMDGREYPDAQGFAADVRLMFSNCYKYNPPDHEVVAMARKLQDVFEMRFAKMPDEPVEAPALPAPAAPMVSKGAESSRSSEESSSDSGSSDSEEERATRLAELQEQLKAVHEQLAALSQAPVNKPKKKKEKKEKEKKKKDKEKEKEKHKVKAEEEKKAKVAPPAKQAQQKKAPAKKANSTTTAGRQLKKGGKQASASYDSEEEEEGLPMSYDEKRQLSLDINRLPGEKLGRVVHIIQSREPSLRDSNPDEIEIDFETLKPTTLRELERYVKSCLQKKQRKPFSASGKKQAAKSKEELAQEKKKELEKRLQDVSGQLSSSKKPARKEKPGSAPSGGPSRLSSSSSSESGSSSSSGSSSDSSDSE

As to `Cn1cc(-c2ccccc2Oc2ccccc2)c2cc(C(=O)NCCCCCCNc3cccc4c3C(=O)N(C3CCC(=O)NC3=O)C4=O)[nH]c2c1=O` (stereo unspecified), the IC50 in assay [1] is 441 nM; in assay [2] it was 39.4 nM. The result in assay [3], in assay [4], in assay [5], in assay [6] and in [7] was Active.

As for `Cn1cc(-c2ccccc2Oc2ccccc2)c2cc(C(=O)NCCCCC(=O)NCCCCNc3cccc4c3C(=O)N(C3CCC(=O)NC3=O)C4=O)[nH]c2c1=O` (stereo unspecified), the IC50 turned out to be 185 nM in [1] and 24.3 nM in assay [2]. Also, the outcome in [3], in assay [4], in assay [5], in [6] and in assay [7] was Active.

With `Cn1cc(-c2cc(C(C)(C)O)ccc2Oc2ccccc2)c2cc(C(=O)NCc3ccc(C(=O)NCCCCNc4cccc5c4C(=O)N(C4CCC(=O)NC4=O)C5=O)cc3)[nH]c2c1=O` (stereo unspecified), the IC50 in assay [1] was 29.5 nM; in [2], 3.82 nM.

For `Cn1cc(-c2ccccc2Oc2ccccc2)c2cc(C(=O)NCCCCCCC(=O)NCCCCNc3cccc4c3C(=O)N(C3CCC(=O)NC3=O)C4=O)[nH]c2c1=O` (stereo unspecified), the results for the IC50 in assay [1] and in [2] were 332 nM and 35.7 nM, respectively. Besides, the result in assay [3], in assay [4], in assay [5], in assay [6] and in assay [7] was Active.

In the case of `Cn1cc(-c2cccc(C(C)(C)O)c2)c2cc(C(=O)NCc3ccc(C(=O)NCCCCNc4cccc5c4C(=O)N(C4CCC(=O)NC4=O)C5=O)cc3)[nH]c2c1=O` (stereo unspecified), the IC50 is 45.4 nM in [1] and 73 nM in assay [2].

Regarding `Cn1cc(-c2ccccc2)c2cc(C(=O)NCc3ccc(C(=O)NCCCCNc4cccc5c4C(=O)N(C4CCC(=O)NC4=O)C5=O)cc3)[nH]c2c1=O` (stereo unspecified), the IC50 in [1] was 99.8 nM; in assay [2], 296 nM.

Take `Cc1sc2c(c1C)C(c1ccc(Cl)cc1)=N[C@@H](CC(=O)NCCCCCCCCNC(=O)COc1cccc3c1C(=O)N(C1CCC(=O)NC1=O)C3=O)c1nnc(C)n1-2` (stereo partly specified): the IC50 in the assay with MV4-11 [8] was found to be 10.3 nM. Moreover, the result (in the assay with MV4-11 [9]; in the assay with MV4-11 [10]; in the assay on MV4-11 [11]; in assay [3]; in assay [4]; in assay [5]) was Active. Also, the outcome in assay [6] was Active.

As for `Cn1cc(-c2ccccc2Oc2ccccc2)c2cc(C(=O)NCCCCNc3cccc4c3C(=O)N(C3CCC(=O)NC3=O)C4=O)[nH]c2c1=O` (stereo unspecified), the IC50 is 472 nM in assay [1] and 84.9 nM in assay [2]. The outcome in assay [3], in assay [4], in assay [5], in [6] and in [7] was Active.

In the case of `C=C(C)c1ccc(Oc2ccccc2)c(-c2cn(C)c(=O)c3[nH]c(C(=O)NCc4ccc(C(=O)NCCCCNc5cccc6c5C(=O)N(C5CCC(=O)NC5=O)C6=O)cc4)cc23)c1` (stereo unspecified), the IC50 was found to be 241 nM in [1] and 74.1 nM in [2]. The result in assay [7] was Active.

Consider `CC(C)Oc1ccc(C(C)(C)O)cc1-c1cn(C)c(=O)c2[nH]c(C(=O)NCc3ccc(C(=O)NCCCCNc4cccc5c4C(=O)N(C4CCC(=O)NC4=O)C5=O)cc3)cc12` (stereo unspecified), for which the IC50 in assay [1] is 24.6 nM; in [2], 13.9 nM.

With `C=C(C)c1ccc(OC(C)C)c(-c2cn(C)c(=O)c3[nH]c(C(=O)NCc4ccc(C(=O)NCCCCNc5cccc6c5C(=O)N(C5CCC(=O)NC5=O)C6=O)cc4)cc23)c1` (stereo unspecified), the half-maximal inhibitory concentration (IC50) in [1] came to 119 nM; in assay [2], 101 nM. Also, the result in assay [7] was Active.

As for `CCNC(=O)c1cc2c(-c3cc(C(C)(C)O)ccc3Oc3c(C)cc(F)cc3C)cn(C)c(=O)c2[nH]1` [ABBV-744], the IC50 in the assay with MV4-11 [8] was 153 nM.

For the compound `Cn1cc(-c2ccccc2Oc2ccccc2)c2cc(C(=O)NCCCCCC(=O)NCCCCNc3cccc4c3C(=O)N(C3CCC(=O)NC3=O)C4=O)[nH]c2c1=O` (stereo unspecified), the IC50 in [1] came out at 278 nM; in assay [2], 38.8 nM. Also, the result in assay [3], in [4], in [5], in assay [6] and in assay [7] was Active.

With `Cn1cc(-c2cc(C(C)(C)O)ccc2OC2CC2)c2cc(C(=O)NCc3ccc(C(=O)NCCCCNc4cccc5c4C(=O)N(C4CCC(=O)NC4=O)C5=O)cc3)[nH]c2c1=O` (stereo unspecified), the IC50 in [1] was determined as 22.7 nM; in [2] it was 7.79 nM.

As to `Cn1cc(-c2ccccc2Oc2ccccc2)c2cc(C(=O)NCc3ccc(C(=O)NCCCCNc4cccc5c4C(=O)N(C4CCC(=O)NC4=O)C5=O)cc3)[nH]c2c1=O` (stereo unspecified), the IC50 came to 34.6 nM in assay [1] and 27.2 nM in assay [2]. Further, the result in assay [12], in assay [3], in assay [4], in assay [5], in [6] and in assay [7] was Active.

Turning to `COc1cc(C(=O)NCCOCCOCCOCCNC(=O)C[C@@H]2N=C(c3ccc(Cl)cc3)c3c(sc(C)c3C)-n3c(C)nnc32)ccc1NC(=O)[C@@H]1N[C@@H](CC(C)(C)C)[C@](C#N)(c2ccc(Cl)cc2F)[C@H]1c1cccc(Cl)c1F`, the result in assay [7] was Active.

Consider `Cn1cc(-c2ccccc2OC2CC2)c2cc(C(=O)NCc3ccc(C(=O)NCCCCNc4cccc5c4C(=O)N(C4CCC(=O)NC4=O)C5=O)cc3)[nH]c2c1=O` (stereo unspecified), for which the IC50 in [1] came to 54.3 nM; in assay [2], 96.4 nM. Further, the result in [12] and in [7] was Active.

Regarding `CC(C)Oc1ccccc1-c1cn(C)c(=O)c2[nH]c(C(=O)NCc3ccc(C(=O)NCCCCNc4cccc5c4C(=O)N(C4CCC(=O)NC4=O)C5=O)cc3)cc12` (stereo unspecified), the IC50 came out at 83.7 nM in assay [1] and 91.5 nM in [2]. Besides, in [7], the outcome was Active.

What is called IC50 is the concentration at which inhibition is half-maximal.
